Experiments:
kochia = assay: Test F preemergence test; format: in vivo, Kochia scoparia; conditions: scale 0 to 100
Outline: (§1)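 Preemergence application to planted seeds, or postemergence to sugarcane plants; compound in non-phytotoxic solvent mix plus surfactant. Greenhouse, 14-21 days. Visual rating vs. controls.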

Italian ryegrass = assay: Test F preemergence test; format: in vivo, Lolium multiflorum; conditions: scale 0 to 100
Outline: as §1

goosegrass = assay: Test F preemergence test; format: in vivo, Eleusine indica; conditions: scale 0 to 100
Outline: as §1

quackgrass = assay: Test F preemergence test; format: in vivo, Elytrigia repens; conditions: scale 0 to 100
Outline: as §1

southern sandbur = assay: Test F preemergence test; format: in vivo, Cenchrus echinatus; conditions: scale 0 to 100
Outline: as §1

barnyardgrass = assay: Test F preemergence test; format: in vivo, Echinochloa crus-galli
Outline: as §1

bermudagrass = assay: Test F preemergence test; format: in vivo, Cynodon dactylon; conditions: scale 0 to 100
Outline: as §1

broadleaf signalgrass = assay: Test F preemergence test; format: in vivo, Brachiaria platyphylla; conditions: scale 0 to 100
Outline: as §1

mustard = assay: Test F preemergence test; format: in vivo, Brassica nigra; conditions: scale 0 to 100
Outline: as §1

common ragweed = assay: Test F preemergence test; format: in vivo, Ambrosia elation; conditions: scale 0 to 100
Outline: as §1

blackgrass = assay: Test C pre-/postemergence test; format: in vivo, Alopecurus myosuroides
Outline: (§2)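 Compounds in a non-phytotoxic solvent with surfactant applied preemergence to seeded pots and, at the same time, postemergence to plants 2–18 cm tall (1- to 4-leaf stage). Paddy tests: pots flooded to 3 cm, compound applied into the water, depth held throughout.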

woolly cupgrass = assay: Test C pre-/postemergence test; format: in vivo, Eriochloa villosa
Outline: as §2

purple nutsedge = assay: Test F preemergence test; format: in vivo, Cyperus rotundus; conditions: scale 0 to 100
Outline: as §1

corn = assay: Test C pre-/postemergence test; format: in vivo, Zea mays
Outline: as §2

Surinam grass = assay: Test F preemergence test; format: in vivo, Brachiaria decumbens; conditions: scale 0 to 100
Outline: as §1

large crabgrass = assay: Test F preemergence test; format: in vivo, Digitaria sanguinalis; conditions: scale 0 to 100
Outline: as §1

[1] = 62 g ai/ha, Preemergence, scale 0 to 100
[2] = 125 g ai/ha, preemergence, scale 0 to 100
[3] = Preemergence, 31 g ai/ha, scale 0 to 100
[4] = Preemergence, 31 g ai/ha, scale 0 to 100 (0 no effect, 100 complete control)
[5] = preemergence, 125 g ai/ha, scale 0 (no effect) to 100 (complete control)
[6] = 125 g ai/ha, preemergence, scale 0 (no effect) to 100 (complete control)
[7] = Postemergence, 62 g ai/ha, scale 0 to 100, 0 no effect, 100 complete control
[8] = Postemergence, 125 g ai/ha, scale 0 to 100, 0 no effect, 100 complete control
[9] = Postemergence, 250 g ai/ha, scale 0 to 100, 0 no effect, 100 complete control
[10] = preemergence, 250 g ai/ha, scale 0 (no effect) to 100 (complete control)

Cc1cc[n+]([O-])c(S(=O)(=O)Cc2c(C(F)(F)F)nn(C)c2OCC(F)(F)F)c1 [Compound 31]
Plant response rating, Kochia (kochia; 16 g ai/ha, preemergence): 0
Kochia plant response rating (kochia; 62 g ai/ha, Preemergence): 65
Kochia plant response rating (kochia; 125 g ai/ha, preemergence): 100
Plant response rating, Kochia (kochia; Preemergence, 31 g ai/ha): 0
Plant response rating, Ryegrass, Italian (Italian ryegrass; 16 g ai/ha, preemergence): 50
Ryegrass, Italian plant response rating (Italian ryegrass; 125 g ai/ha, preemergence): 90
Plant response rating, Ryegrass, Italian (Italian ryegrass; Preemergence, 62 g ai/ha): 90
Plant response rating, Ryegrass, Italian (Italian ryegrass; Preemergence, 31 g ai/ha): 90
Plant response rating, Goosegrass (goosegrass; 16 g ai/ha, preemergence): 50
Goosegrass plant response rating (goosegrass; 62 g ai/ha, Preemergence): 100
Goosegrass plant response rating (goosegrass; 125 g ai/ha, preemergence): 100
Plant response rating, Goosegrass (goosegrass; Preemergence, 31 g ai/ha): 75
Plant response rating, Quackgrass (quackgrass; 16 g ai/ha, preemergence): 15
Quackgrass plant response rating (quackgrass; 62 g ai/ha, Preemergence): 75
Quackgrass plant response rating (quackgrass; 125 g ai/ha, preemergence): 95
Plant response rating, Quackgrass (quackgrass; Preemergence, 31 g ai/ha): 65
Plant response rating, Sandbur (southern sandbur; 16 g ai/ha, preemergence): 40
Sandbur plant response rating (southern sandbur; 125 g ai/ha, preemergence): 100
Plant response rating, Sandbur (southern sandbur; Preemergence, 62 g ai/ha): 100
Plant response rating, Sandbur (southern sandbur; Preemergence, 31 g ai/ha): 90
Plant response rating, Barnyardgrass (barnyardgrass; 16 g ai/ha, preemergence, scale 0 to 100 (0 no effect, 100 complete control)): 50
Barnyardgrass plant response rating (barnyardgrass; [1]): 100
Barnyardgrass plant response rating (barnyardgrass; [2]): 100
Plant response rating, Barnyardgrass (barnyardgrass; [3]): 95
Plant response rating, Bermudagrass (bermudagrass; 16 g ai/ha, preemergence): 20
Bermudagrass plant response rating (bermudagrass; 62 g ai/ha, Preemergence): 100
Bermudagrass plant response rating (bermudagrass; 125 g ai/ha, preemergence): 100
Plant response rating, Bermudagrass (bermudagrass; Preemergence, 31 g ai/ha): 75
Plant response rating, Signalgrass (broadleaf signalgrass; 16 g ai/ha, preemergence): 35
Signalgrass plant response rating (broadleaf signalgrass; 125 g ai/ha, preemergence): 98
Plant response rating, Signalgrass (broadleaf signalgrass; Preemergence, 62 g ai/ha): 90
Plant response rating, Signalgrass (broadleaf signalgrass; Preemergence, 31 g ai/ha): 60
Plant response rating, Black Mustard (mustard; 16 g ai/ha, preemergence): 40
Black Mustard plant response rating (mustard; 62 g ai/ha, Preemergence): 100
Black Mustard plant response rating (mustard; 125 g ai/ha, preemergence): 100
Plant response rating, Black Mustard (mustard; Preemergence, 31 g ai/ha): 95
Plant response rating, Ragweed (common ragweed; 16 g ai/ha, preemergence): 20
Ragweed plant response rating (common ragweed; 125 g ai/ha, preemergence): 100
Plant response rating, Ragweed (common ragweed; Preemergence, 62 g ai/ha): 90
Plant response rating, Ragweed (common ragweed; Preemergence, 31 g ai/ha): 75
Blackgrass plant response rating (blackgrass; [1]): 80
Plant response rating, Blackgrass (blackgrass; [4]): 60
Plant response rating (0 to 100), Blackgrass (blackgrass; Preemergence, 250 g ai/ha): 100
Blackgrass plant response rating (blackgrass; [5]): 100
Cupgrass, Woolly plant response rating (woolly cupgrass; [1]): 100
Plant response rating, Cupgrass, Woolly (woolly cupgrass; [4]): 95
Plant response rating (0 to 100), Cupgrass, Woolly (woolly cupgrass; Preemergence, 250 g ai/ha): 100
Plant response rating, Purple Nutsedge (purple nutsedge; 16 g ai/ha, preemergence): 40
Purple Nutsedge plant response rating (purple nutsedge; 62 g ai/ha, Preemergence): 70
Purple Nutsedge plant response rating (purple nutsedge; 125 g ai/ha, preemergence): 100
Plant response rating, Purple Nutsedge (purple nutsedge; Preemergence, 31 g ai/ha): 50
Corn plant response rating (corn; [1]): 50
Plant response rating, Corn (corn; [4]): 0
Plant response rating (0 to 100), Corn (corn; Preemergence, 250 g ai/ha): 98
Corn plant response rating (corn; [5]): 85
Plant response rating, Surinam Grass (Surinam grass; 16 g ai/ha, preemergence): 20
Surinam Grass plant response rating (Surinam grass; 125 g ai/ha, preemergence): 100
Plant response rating, Surinam Grass (Surinam grass; Preemergence, 62 g ai/ha): 95
Plant response rating, Surinam Grass (Surinam grass; Preemergence, 31 g ai/ha): 85
Plant response rating, Crabgrass, Large (large crabgrass; 16 g ai/ha, preemergence): 30
Crabgrass, Large plant response rating (large crabgrass; 125 g ai/ha, preemergence): 100
Plant response rating, Crabgrass, Large (large crabgrass; Preemergence, 31 g ai/ha): 95

Cn1nc(C(F)(F)F)c(C[S+]([O-])c2ccc(F)c[n+]2[O-])c1OC(F)F (stereo not drawn) [Compound 58]
Kochia plant response rating (kochia; 62 g ai/ha, Preemergence): 40
Kochia plant response rating (kochia; 125 g ai/ha, preemergence): 100
Kochia plant response rating (kochia; 250 g ai/ha, preemergence): 100
Plant response rating, Kochia (kochia; Preemergence, 31 g ai/ha): 20
Ryegrass, Italian plant response rating (Italian ryegrass; 125 g ai/ha, preemergence): 100
Ryegrass, Italian plant response rating (Italian ryegrass; 250 g ai/ha, preemergence): 100
Plant response rating, Ryegrass, Italian (Italian ryegrass; Preemergence, 62 g ai/ha): 98
Plant response rating, Ryegrass, Italian (Italian ryegrass; Preemergence, 31 g ai/ha): 50
Goosegrass plant response rating (goosegrass; 62 g ai/ha, Preemergence): 98
Goosegrass plant response rating (goosegrass; 125 g ai/ha, preemergence): 98
Goosegrass plant response rating (goosegrass; 250 g ai/ha, preemergence): 100
Plant response rating, Goosegrass (goosegrass; Preemergence, 31 g ai/ha): 70
Quackgrass plant response rating (quackgrass; 62 g ai/ha, Preemergence): 70
Quackgrass plant response rating (quackgrass; 125 g ai/ha, preemergence): 95
Quackgrass plant response rating (quackgrass; 250 g ai/ha, preemergence): 100
Plant response rating, Quackgrass (quackgrass; Preemergence, 31 g ai/ha): 35
Sandbur plant response rating (southern sandbur; 125 g ai/ha, preemergence): 100
Sandbur plant response rating (southern sandbur; 250 g ai/ha, preemergence): 100
Plant response rating, Sandbur (southern sandbur; Preemergence, 62 g ai/ha): 100
Plant response rating, Sandbur (southern sandbur; Preemergence, 31 g ai/ha): 80
Barnyardgrass plant response rating (barnyardgrass; [1]): 100
Barnyardgrass plant response rating (barnyardgrass; [2]): 100
Barnyardgrass plant response rating (barnyardgrass; 250 g ai/ha, preemergence, scale 0 to 100): 100
Plant response rating, Barnyardgrass (barnyardgrass; [3]): 90
Bermudagrass plant response rating (bermudagrass; 62 g ai/ha, Preemergence): 90
Bermudagrass plant response rating (bermudagrass; 125 g ai/ha, preemergence): 100
Bermudagrass plant response rating (bermudagrass; 250 g ai/ha, preemergence): 100
Plant response rating, Bermudagrass (bermudagrass; Preemergence, 31 g ai/ha): 70
Signalgrass plant response rating (broadleaf signalgrass; 125 g ai/ha, preemergence): 90
Signalgrass plant response rating (broadleaf signalgrass; 250 g ai/ha, preemergence): 98
Plant response rating, Signalgrass (broadleaf signalgrass; Preemergence, 62 g ai/ha): 80
Plant response rating, Signalgrass (broadleaf signalgrass; Preemergence, 31 g ai/ha): 30
Black Mustard plant response rating (mustard; 62 g ai/ha, Preemergence): 60
Black Mustard plant response rating (mustard; 125 g ai/ha, preemergence): 100
Black Mustard plant response rating (mustard; 250 g ai/ha, preemergence): 100
Plant response rating, Black Mustard (mustard; Preemergence, 31 g ai/ha): 50
Ragweed plant response rating (common ragweed; 125 g ai/ha, preemergence): 60
Ragweed plant response rating (common ragweed; 250 g ai/ha, preemergence): 80
Plant response rating, Ragweed (common ragweed; Preemergence, 62 g ai/ha): 60
Plant response rating, Ragweed (common ragweed; Preemergence, 31 g ai/ha): 50
Blackgrass plant response rating (blackgrass; [1]): 98
Blackgrass plant response rating (blackgrass; [6]): 100
Plant response rating (0 to 100), Blackgrass (blackgrass; Postemergence, 31 g ai/ha): 0
Plant response rating, Blackgrass (blackgrass; [7]): 0
Plant response rating, Blackgrass (blackgrass; [8]): 30
Plant response rating, Blackgrass (blackgrass; [9]): 80
Plant response rating, Blackgrass (blackgrass; [4]): 98
Blackgrass plant response rating (blackgrass; [10]): 100
Cupgrass, Woolly plant response rating (woolly cupgrass; [1]): 60
Cupgrass, Woolly plant response rating (woolly cupgrass; [6]): 95
Plant response rating (0 to 100), Cupgrass, Woolly (woolly cupgrass; Postemergence, 31 g ai/ha): 0
Plant response rating, Cupgrass, Woolly (woolly cupgrass; [7]): 0
Plant response rating, Cupgrass, Woolly (woolly cupgrass; [8]): 10
Plant response rating, Cupgrass, Woolly (woolly cupgrass; [9]): 80
Plant response rating, Cupgrass, Woolly (woolly cupgrass; [4]): 10
Cupgrass, Woolly plant response rating (woolly cupgrass; [10]): 100
Purple Nutsedge plant response rating (purple nutsedge; 62 g ai/ha, Preemergence): 80
Purple Nutsedge plant response rating (purple nutsedge; 125 g ai/ha, preemergence): 95
Purple Nutsedge plant response rating (purple nutsedge; 250 g ai/ha, preemergence): 95
Plant response rating, Purple Nutsedge (purple nutsedge; Preemergence, 31 g ai/ha): 0
Corn plant response rating (corn; [1]): 100
Corn plant response rating (corn; [6]): 100
Plant response rating (0 to 100), Corn (corn; Postemergence, 31 g ai/ha): 0
Plant response rating, Corn (corn; [7]): 0
Plant response rating, Corn (corn; [8]): 0
Plant response rating, Corn (corn; [9]): 0
Plant response rating, Corn (corn; [4]): 75
Corn plant response rating (corn; [10]): 100
Surinam Grass plant response rating (Surinam grass; 125 g ai/ha, preemergence): 100
Surinam Grass plant response rating (Surinam grass; 250 g ai/ha, preemergence): 100
Plant response rating, Surinam Grass (Surinam grass; Preemergence, 62 g ai/ha): 98
Plant response rating, Surinam Grass (Surinam grass; Preemergence, 31 g ai/ha): 80
Crabgrass, Large plant response rating (large crabgrass; 62 g ai/ha, Preemergence): 98
Crabgrass, Large plant response rating (large crabgrass; 125 g ai/ha, preemergence): 100
Crabgrass, Large plant response rating (large crabgrass; 250 g ai/ha, preemergence): 100
Plant response rating, Crabgrass, Large (large crabgrass; Preemergence, 31 g ai/ha): 75

From US20100298141A1, “SUBSTITUTED PYRIDINE N-OXIDE HERBICIDES” (E. I. DU PONT DE NEMOURS AND COMPANY, priority 2007, published 2010)
